# Test results reported in ChEMBL document CHEMBL5260813, “An overview on the recent developments of 1,2,4-triazine derivatives as anticancer compounds” (Eur J Med Chem, 2017).
# How the values were obtained:
# HepG2 = assay: Antiproliferative activity against human HepG2 cells assessed as cell growth inhibition; format: functional, cell-based
# MCF7 [1] = assay: Antiproliferative activity against human MCF7 cells assessed as inhibition of cell growth by MTT assay; format: functional, cell-based
# MDA-MB-231 [2] = assay: Antiproliferative activity against human MDA-MB-231 cells assessed as inhibition of cell growth by MTT assay; format: functional, cell-based
# MCF7 [3] = assay: Antiproliferative activity against human MCF7 cells assessed as inhibition of cell growth by [3H]thymidine incorporation assay; format: functional, cell-based
# MDA-MB-231 [4] = assay: Antiproliferative activity against human MDA-MB-231 cells assessed as inhibition of cell growth by [3H]thymidine incorporation assay; format: functional, cell-based
# MCF7 [5] = assay: Antiproliferative activity against human MCF7 cells assessed as inhibition of cell growth; format: functional, cell-based
# HCT-116 = assay: Antiproliferative activity against human HCT-116 cells assessed as inhibition of cell growth; format: functional, cell-based
# OVCAR-4 = assay: Antiproliferative activity against human OVCAR-4 cells assessed as cell growth inhibition; format: functional, cell-based
# MCF7 [6] = assay: Cytotoxicity against human MCF7 cells assessed as inhibition of cell growth incubated for 72 hrs by MTT assay; format: functional, cell-based; details: MCF7, 72 h
# HL-60 [7] = assay: Antiproliferative activity against human HL-60 cells assessed as inhibition of cell growth incubated for 72 hrs by MTT assay; format: functional, cell-based; details: HL-60, 72 h
# MOLT-4 = assay: Antiproliferative activity against human MOLT-4 cells assessed as inhibition of cell growth incubated for 72 hrs by MTT assay; format: functional, cell-based; details: MOLT-4, 72 h
# HL-60 [8] = assay: Antiproliferative activity against human HL-60 cells assessed as inhibition of cell growth under normoxia condition incubated for 72 hrs by MTT assay; format: functional, cell-based; details: HL-60, 72 h
# Bel-7402 [9] = assay: Antiproliferative activity against human Bel-7402 cells assessed as inhibition of cell growth under normoxia condition incubated for 72 hrs by MTT assay; format: functional, cell-based; details: Bel-7402, 72 h
# ECa-109 cell line [10] = assay: Antiproliferative activity against human Eca-109 cells assessed as inhibition of cell growth under normoxia condition incubated for 72 hrs by MTT assay; format: functional, cell-based; details: ECa-109, 72 h
# PC-3 [11] = assay: Antiproliferative activity against human PC-3 cells assessed as inhibition of cell growth under normoxia condition incubated for 72 hrs by MTT assay; format: functional, cell-based; details: PC-3, 72 h
# MCF7 [12] = assay: Antiproliferative activity against human MCF7 cells assessed as inhibition of cell growth under normoxia condition incubated for 72 hrs by MTT assay; format: functional, cell-based; details: MCF7, 72 h
# HL-60 [13] = assay: Antiproliferative activity against human HL-60 cells assessed as inhibition of cell growth under hypoxia condition incubated for 72 hrs by MTT assay; format: functional, cell-based; details: HL-60, 72 h
# Bel-7402 [14] = assay: Antiproliferative activity against human Bel-7402 cells assessed as inhibition of cell growth under hypoxia condition incubated for 72 hrs by MTT assay; format: functional, cell-based; details: Bel-7402, 72 h
# ECa-109 cell line [15] = assay: Antiproliferative activity against human Eca-109 cells assessed as inhibition of cell growth under hypoxia condition incubated for 72 hrs by MTT assay; format: functional, cell-based; details: ECa-109, 72 h
# MCF7 [16] = assay: Antiproliferative activity against human MCF7 cells assessed as inhibition of cell growth under hypoxia condition incubated for 72 hrs by MTT assay; format: functional, cell-based; details: MCF7, 72 h
# PC-3 [17] = assay: Antiproliferative activity against human PC-3 cells assessed as inhibition of cell growth under hypoxia condition incubated for 72 hrs by MTT assay; format: functional, cell-based; details: PC-3, 72 h
# [18] = Ratio of IC50 for antiproliferative activity against human HL-60 cells assessed as inhibition of cell growth under normoxia condition to IC50 for antiproliferative activity against human HL-60 cells assessed as inhibition of cell growth under hypoxia condition; format: functional
# [19] = Ratio of IC50 for antiproliferative activity against human Bel-7402 cells assessed as inhibition of cell growth under normoxia condition to IC50 for antiproliferative activity against human Bel-7402 cells assessed as inhibition of cell growth under hypoxia condition; format: functional
# [20] = Ratio of IC50 for antiproliferative activity against human Eca-109 cells assessed as inhibition of cell growth under normoxia condition to IC50 for antiproliferative activity against human Eca-109 cells assessed as inhibition of cell growth under hypoxia condition; format: functional
# [21] = Ratio of IC50 for antiproliferative activity against human PC-3 cells assessed as inhibition of cell growth under normoxia condition to IC50 for antiproliferative activity against human PC-3 cells assessed as inhibition of cell growth under hypoxia condition; format: functional
# [22] = molecular target: T1, Interleukin-1 receptor-associated kinase 4 (Homo sapiens, UniProt Q9NWZ3); assay: Inhibition of human GST-tagged IRAK4 incubated for 30 mins in presence of ATP by fluorescent polarization assay
# T1 sequence (Q9NWZ3 whole entry): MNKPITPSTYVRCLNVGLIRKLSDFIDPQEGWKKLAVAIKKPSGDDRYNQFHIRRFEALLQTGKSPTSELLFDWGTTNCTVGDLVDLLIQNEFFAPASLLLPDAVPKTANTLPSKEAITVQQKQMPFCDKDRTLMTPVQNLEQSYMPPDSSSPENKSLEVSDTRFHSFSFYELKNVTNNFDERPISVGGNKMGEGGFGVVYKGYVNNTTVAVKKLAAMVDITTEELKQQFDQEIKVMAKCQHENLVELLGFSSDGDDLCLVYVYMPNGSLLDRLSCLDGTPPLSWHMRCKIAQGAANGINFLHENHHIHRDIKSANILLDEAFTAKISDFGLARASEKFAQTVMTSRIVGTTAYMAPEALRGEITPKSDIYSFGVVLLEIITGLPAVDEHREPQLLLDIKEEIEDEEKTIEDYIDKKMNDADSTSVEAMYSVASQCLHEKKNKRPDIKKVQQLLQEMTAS
# [23] = Ratio of IC50 for antiproliferative activity against human MCF7 cells assessed as inhibition of cell growth under normoxia condition to IC50 for antiproliferative activity against human MCF7 cells assessed as inhibition of cell growth under hypoxia condition; format: functional
# [24] = tested on: Panel NCI-60 (60 carcinoma cell lines); assay: Antiproliferative activity against human Panel NCI-60 (60 carcinoma cell lines) assessed as cell growth inhibition incubated for 48 hrs by SRB assay; format: functional
# BT-474 = assay: Antiproliferative activity against human BT-474 cells assessed as inhibition of cell growth; format: functional, cell-based
structure (smiles),measurement,setting,value
O=C1CN2C(=O)/C(=C/c3ccc([N+](=O)[O-])cc3)N=C(c3ccccc3)N2C(=S)N1,IC50,HepG2,2.67 µM
c1ccc(-c2nnc(SSc3nnc(-c4ccccc4)c(-c4ccccc4)n3)nc2-c2ccccc2)cc1,IC50,MCF7 [1],25 µM
same,IC50,MDA-MB-231 [2],25 µM
same,IC50,MCF7 [3],35 µM
same,IC50,MDA-MB-231 [4],39 µM
c1ccc(-c2cc(SN3CCOCC3)nnc2-c2ccccc2)cc1,IC50,MCF7 [1],91 µM
same,IC50,MDA-MB-231 [2],88 µM
same,IC50,MCF7 [3],87 µM
same,IC50,MDA-MB-231 [4],84 µM
c1ccc(-c2cc(SN3CCCC3)nnc2-c2ccccc2)cc1,IC50,MCF7 [1],30 µM
same,IC50,MDA-MB-231 [2],25 µM
same,IC50,MCF7 [3],15 µM
same,IC50,MDA-MB-231 [4],40 µM
O=c1c(/C=C/c2cccs2)nnc(S)n1/N=C/c1ccccc1,IC50,HepG2,8.79 µM
same,IC50,MCF7 [5],8.79 µM
same,IC50,HCT-116,8.79 µM
Cc1c(C#N)c2nnc(C#N)c(N)n2c1-c1ccccc1,IC50,OVCAR-4,2.77 µM
CSc1nnc2c(n1)-c1cccc3cccc-2c13,IC50,MCF7 [6],30 µM
same,IC50,HL-60 [7],30 µM
same,IC50,MOLT-4,30 µM
CC(=O)c1nnc2c(C#N)c(C)c(-c3ccccc3)n2c1C,IC50,OVCAR-4,2.77 µM
O=[N+]([O-])c1ccccc1CSc1nnc2c(n1)-c1cccc3cccc-2c13,IC50,MCF7 [6],30 µM
same,IC50,HL-60 [7],30 µM
same,IC50,MOLT-4,30 µM
CCSc1nnc2c(n1)-c1cccc3cccc-2c13,IC50,MCF7 [6],30 µM
same,IC50,HL-60 [7],30 µM
same,IC50,MOLT-4,30 µM
Nn1c(SC2Sc3nnc(/C=C/c4cccs4)c(=O)n3NC2=O)nnc(/C=C/c2cccs2)c1=O (configuration not stated),IC50,HepG2,8.79 µM
same,IC50,MCF7 [5],8.79 µM
same,IC50,HCT-116,8.79 µM
CC(=O)Nn1c(S)nnc(/C=C/c2cccs2)c1=O,IC50,HepG2,8.79 µM
same,IC50,MCF7 [5],8.79 µM
same,IC50,HCT-116,8.79 µM
CCNc1n[n+]([O-])c2cc([N+](=O)[O-])ccc2[n+]1[O-],IC50,HL-60 [8],0.2 µM
same,IC50,Bel-7402 [9],0.2 µM
same,IC50,ECa-109 cell line [10],0.2 µM
same,IC50,PC-3 [11],0.2 µM
same,IC50,MCF7 [12],0.2 µM
same,IC50,HL-60 [13],0.2 µM
same,IC50,Bel-7402 [14],0.2 µM
same,IC50,ECa-109 cell line [15],0.2 µM
same,IC50,MCF7 [16],0.2 µM
same,IC50,PC-3 [17],0.2 µM
same,Ratio IC50,[18],1.4
same,Ratio IC50,[19],1.6
same,Ratio IC50,[20],2.2
same,Ratio IC50,[21],1.9
NC(=O)c1nn(CCO)cc1NC(=O)c1ccc2cnc(NC3CCCCC3N)nn12 (configuration not stated),IC50,[22],0.003 µM
Clc1ccc(CSc2nnc3c(n2)-c2cccc4cccc-3c24)cc1Cl,IC50,MCF7 [6],30 µM
same,IC50,HL-60 [7],30 µM
same,IC50,MOLT-4,30 µM
Cc1c(-c2ccccc2)c(C#N)c2nnc(C#N)c(N)n12,IC50,OVCAR-4,2.77 µM
[O-][n+]1nc(NCc2ccccc2)[n+]([O-])c2ccc(Cl)cc21,IC50,HL-60 [8],0.2 µM
same,IC50,Bel-7402 [9],0.2 µM
same,IC50,ECa-109 cell line [10],0.2 µM
same,IC50,PC-3 [11],0.2 µM
same,IC50,MCF7 [12],0.2 µM
same,IC50,HL-60 [13],0.2 µM
same,IC50,Bel-7402 [14],0.2 µM
same,IC50,ECa-109 cell line [15],0.2 µM
same,IC50,MCF7 [16],0.2 µM
same,IC50,PC-3 [17],0.2 µM
same,Ratio IC50,[18],1
same,Ratio IC50,[19],1.8
same,Ratio IC50,[20],3.2
same,Ratio IC50,[23],1.1
same,Ratio IC50,[21],1.4
c1ccc(CSc2nnc3c(n2)-c2cccc4cccc-3c24)cc1,IC50,MCF7 [6],30 µM
same,IC50,HL-60 [7],30 µM
same,IC50,MOLT-4,30 µM
[O-][n+]1nc(Nc2ccccc2)[n+]([O-])c2ccc(Cl)cc21,IC50,HL-60 [8],0.2 µM
same,IC50,Bel-7402 [9],0.2 µM
same,IC50,ECa-109 cell line [10],0.2 µM
same,IC50,PC-3 [11],0.2 µM
same,IC50,MCF7 [12],0.2 µM
same,IC50,HL-60 [13],0.2 µM
same,IC50,Bel-7402 [14],0.2 µM
same,IC50,ECa-109 cell line [15],0.2 µM
same,IC50,MCF7 [16],0.2 µM
same,IC50,PC-3 [17],0.2 µM
same,Ratio IC50,[18],6.9
same,Ratio IC50,[20],2.8
same,Ratio IC50,[23],3
same,Ratio IC50,[21],1.3
Clc1ccc(CSc2nnc3c(n2)-c2cccc4cccc-3c24)c(Cl)c1,IC50,MCF7 [6],30 µM
same,IC50,HL-60 [7],30 µM
same,IC50,MOLT-4,30 µM
O=C1CNN(CSc2nc3ccc(I)cc3c(=O)n2Cc2ccccc2)C=N1,GI50,[24],22.6 µM
same,TGI,[24],61.4 µM
same,CC50,[24]; read-out: LC50 (the source's name),89.3 µM
CCn1nc(-c2cccs2)nc2c(=O)n(C)c(=O)nc1-2,IC50,BT-474,0.9 µM
Cc1nc2c(=O)n(C)c(=O)nc-2n(C)n1,IC50,BT-474,0.9 µM
